Here are results for 82 compounds from PubChem BioAssay AID1259338 (Broad Institute, 2017).

Structures are written as SMILES. The source made the active and inactive calls.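 How the source made its calls: active means compounds lowering the signal with a fitted AC50 at or below a set concentration limit; inconclusive means flat curve with 30 to 70% inhibition, or a poor fit; inactive means the rest.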

In one assay the target is Caspase recruitment domain-containing protein 9 (Homo sapiens) + E3 ubiquitin-protein ligase TRIM62 (Homo sapiens) (UniProt Q9H257+Q9BVG3). Put plainly: disruptors of CARD9-TRIM62 binding, dose response, cell lysate, HEK293FT lysates, Luminex bead readout (AID 1259338). On activity change, negative = inhibition: reference of the scale not given here. To be noted: Luminex bead PPI, MFI.
Caspase recruitment domain-containing protein 9 (Homo sapiens) + E3 ubiquitin-protein ligase TRIM62 (Homo sapiens), sequence (Q9BVG3 whole entry, looked up, the tested form may be a part): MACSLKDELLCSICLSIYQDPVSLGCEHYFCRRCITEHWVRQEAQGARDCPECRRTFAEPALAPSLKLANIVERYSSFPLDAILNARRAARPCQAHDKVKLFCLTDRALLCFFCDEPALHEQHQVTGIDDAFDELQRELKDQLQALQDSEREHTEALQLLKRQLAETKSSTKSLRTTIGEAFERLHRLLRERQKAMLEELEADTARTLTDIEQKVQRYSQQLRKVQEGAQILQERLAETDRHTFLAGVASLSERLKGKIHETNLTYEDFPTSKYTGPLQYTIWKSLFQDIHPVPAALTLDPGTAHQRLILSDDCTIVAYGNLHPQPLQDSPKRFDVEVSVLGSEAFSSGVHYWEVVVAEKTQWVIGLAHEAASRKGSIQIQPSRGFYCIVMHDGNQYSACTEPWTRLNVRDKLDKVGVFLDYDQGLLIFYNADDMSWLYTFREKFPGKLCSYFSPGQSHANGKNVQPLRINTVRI
Caspase recruitment domain-containing protein 9 (Homo sapiens) + E3 ubiquitin-protein ligase TRIM62 (Homo sapiens), sequence (Q9H257 whole entry, looked up, the tested form may be a part): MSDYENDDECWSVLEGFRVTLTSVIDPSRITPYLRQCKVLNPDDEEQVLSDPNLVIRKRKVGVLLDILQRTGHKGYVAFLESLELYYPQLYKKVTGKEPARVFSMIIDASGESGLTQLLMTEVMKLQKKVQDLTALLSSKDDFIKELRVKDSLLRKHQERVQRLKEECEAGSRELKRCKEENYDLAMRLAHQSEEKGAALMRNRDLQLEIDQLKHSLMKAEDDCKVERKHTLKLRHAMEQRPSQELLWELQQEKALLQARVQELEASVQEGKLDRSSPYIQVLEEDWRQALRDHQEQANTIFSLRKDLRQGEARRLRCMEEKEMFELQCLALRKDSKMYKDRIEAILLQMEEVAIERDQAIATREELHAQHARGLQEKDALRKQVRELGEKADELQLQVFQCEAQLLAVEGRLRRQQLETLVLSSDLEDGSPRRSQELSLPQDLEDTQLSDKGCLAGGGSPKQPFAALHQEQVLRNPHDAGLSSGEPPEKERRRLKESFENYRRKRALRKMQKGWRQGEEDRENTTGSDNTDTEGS
In the case of `c1cn(CCc2noc(C3CCCC3)n2)c(-c2cc3n(n2)CCCNC3)n1`, the AC50 is 53.7 µM.
Take `O=S(=O)(c1ccccc1)N1CC2CN(Cc3ccc(O)cc3)C2C1` (configuration not stated): the AC50 was 22.8 µM.
Still for that read-out and setting: the same measure for `Cc1ccc(Nc2nc(C(=O)Nc3ccc(Cl)cc3)nc3ccccc23)cc1`: 22.9 µM; for `NC(=O)C1(N2CCCCC2)CCN(c2ncc(NC(=O)c3ccc(F)cc3)cc2C(=O)O)CC1`: 44.2 µM; for `C[C@H](CO)N1C[C@H](C)[C@@H](CN(C)CC2CCCCC2)OCCCC[C@H](C)Oc2ccc(NS(=O)(=O)c3ccc(F)cc3)cc2C1=O`: 73 µM.
On the same count and under the same terms, as for `Cc1ccc(S(=O)(=O)Nc2ccc3c(c2)C(=O)N([C@H](C)CO)C[C@H](C)[C@@H](CN(C)C(=O)C2CCCCC2)OCCCC[C@H](C)O3)cc1`, the figure is > 160 µM (inactive); as for `O=C(CN1CCOC1=O)N1CCC2(CCC(=O)N(CCCn3ccnc3)C2)CC1`, > 160 µM (inactive); as for `CCOC(=O)C1CCN(C(=O)CN(Cc2ccccc2)S(C)(=O)=O)CC1`, > 76 µM (inactive).
Same read-out and setting: the same measure for `NC(=O)C1(N2CCCCC2)CCN(c2ncc(NC(=O)c3ccccc3F)cc2C(=O)O)CC1`: 18 µM; for `Cc1ccc(-c2cc(C(=O)NCc3ccco3)c3ccccc3n2)o1`: 75 µM.
With `CCN1CCN(C(=O)c2cc(-c3ccco3)nc3ccccc23)CC1`, the AC50 was 61.4 µM.
Same read-out and setting: the same measure for `COc1ccc(S(=O)(=O)N2CCN(C(=O)c3cc4c(s3)CCC4)CC2)cc1`: 63.1 µM; for `C=CC(=O)N1CCCC2(CCN(CCN3CCCC3)C2=O)C1` (configuration not stated): 1.53 µM; for `COc1cccc(NC(=O)CN(C)C(=O)c2cc3c(s2)CCC3)c1`: 50.6 µM.
For `O=C(NCc1ccco1)c1c2c(nc3ccccc13)CCC2`, the AC50 was > 160 µM (inactive).
On the same count and under the same terms, as for `CC(=O)c1ccc(NC(=O)c2noc3c2CCC3)cc1`, the figure is > 160 µM (inactive); as for `O=C(Nc1nccs1)c1cc(-c2ccco2)nc2ccccc12`, > 160 µM (inactive).
The same measure, in the same setting: as for `O=C1C=C(c2ccccc2)Nc2ccccc2N1`, the figure is > 160 µM (inactive).
In the case of `c1ccc(-c2nc(-c3ccco3)n3ccccc23)cc1`, the AC50 is > 76 µM (inactive).
Same read-out and setting: the same measure for `O=C(NCCCN1CCOCC1)c1cc(-c2ccco2)nc2ccccc12`: 41.8 µM.
On the same count and under the same terms, the same measure for `Cc1c(C(=O)OCC2CCCO2)[nH]c2c1C(=O)CC(c1ccco1)C2` (configuration not stated): > 160 µM (inactive).
The same measure, in the same setting: the same measure for `O=C1c2ccccc2-c2nc3ccccc3nc21`: > 160 µM (inactive); for `O=C(NCc1cccnc1)c1ccccc1-c1nc(-c2ccccc2)no1`: > 160 µM (inactive).
As to `COc1ccc(S(=O)(=O)N2CCOCC2)cc1NC(=O)c1cccc(-n2cccc2)c1`, the AC50 is 77.6 µM.
In the case of `Nc1ccc(-c2cccc(CN3CCCC3)c2)cc1`, the AC50 is > 160 µM (inactive).
On the same count and under the same terms, as for `O=C(NCCc1ccccc1)c1cc2cccnc2n(Cc2ccccc2)c1=O`, the figure is > 160 µM (inactive).

Staying with this assay, now noted: Luminex bead PPI, MFI, at 80 µM (top of the series).
As for `N#Cc1c(NC(=O)CSc2nc3ccccc3o2)sc2c1CCC2`, the “activity change, negative = inhibition” value is “inactive”.
The same measure, in the same setting: as for `Cc1nc(C)c(C(=O)Nc2ncc([N+](=O)[O-])s2)o1`, the entry is “inactive”.
The same measure, in the same setting: the same measure for `CCCC(=O)NCc1ccc2c(c1)cc(C)n2C`: “inactive”; for `CS(=O)(=O)N1CCN(c2ccc([N+](=O)[O-])c(SCc3ccco3)c2)CC1`: “inactive”.
Still for that read-out and setting: the same measure for `O=C(O)C(c1ccccc1)C(c1ccccc1)c1ccccc1` (configuration not stated): “inactive”; for `O=C(NCc1ccco1)c1ccc(S(=O)(=O)N2CCOCC2)cc1`: “inactive”.
For the compound `CCCCCn1c(NC(=O)c2ccco2)c(C(=O)OCC)c2nc3ccccc3nc21`, the “activity change, negative = inhibition” value was “inactive”.
Consider `O=C(O)COCC(=O)NCc1ccco1`, for which the “activity change, negative = inhibition” value is “inactive”.
Same read-out and setting: the same measure for `C[C@H](CO)N1C[C@H](C)[C@@H](CN(C)CC2CCCCC2)OCCCC[C@H](C)Oc2ccc(NS(=O)(=O)c3cn(C)cn3)cc2C1=O`: “inactive”; for `CC(C)(C)c1ccc(-c2nc(C#N)c(NCc3ccncc3)o2)cc1`: “inactive”.
Turning to `C[C@H](CO)N1C[C@H](C)[C@@H](CN(C)C(=O)C2CCCCC2)OCCCC[C@H](C)Oc2ccc(NS(=O)(=O)c3cccs3)cc2C1=O`, the “activity change, negative = inhibition” value was “inactive”.
Same read-out and setting: the same measure for `CC(C(=O)N1CCCC1)N1CCN(c2ccccc2O)CC1` (configuration not stated): “inactive”; for `O=C(Cn1cncc1-c1ccc([N+](=O)[O-])cc1)Nc1ccccc1F`: “inactive”; for `Cc1cc(C(=O)Nc2nc3c(s2)CCc2ccccc2-3)no1`: “inactive”.
Take `CCNc1ncc(C(=O)NCCc2nc3c(s2)CCCC3)cn1`: the “activity change, negative = inhibition” value is “inactive”.
The same measure, in the same setting: the same measure for `COc1ccc(N2Cc3cccc(C(=O)NC(C)CCc4ccco4)c3C2=O)cc1` (configuration not stated): “inactive”.
Same read-out and setting: as for `O=C1CS/C(=N\N=C\c2ccco2)N1c1ccccc1`, the entry is “inactive”; as for `O=C(Nc1nc(-c2ccco2)c(-c2ccco2)s1)c1ccco1`, “inactive”; as for `N#Cc1c2c(c(NCc3ccco3)n3c1nc1ccccc13)CCC2`, “inactive”.
With `O=C(Nc1ccon1)c1cc2cccnc2n(Cc2ccccc2)c1=O`, the “activity change, negative = inhibition” value was “inactive”.
With `Cc1cc(C)c2c(N)c(C(=O)Nc3cccc4ccccc34)sc2n1`, the “activity change, negative = inhibition” value is “inactive”.
With `Cc1noc(C)c1S(=O)(=O)Nc1ccc2c(c1)C(=O)N([C@H](C)CO)C[C@H](C)[C@@H](CN(C)CC1CCCCC1)OCCCC[C@H](C)O2`, the “activity change, negative = inhibition” value is “inactive”.
The same measure, in the same setting: as for `O=C(CC1Nc2ccccc2OC1=O)Nc1ccc(Cl)cc1` (configuration not stated), the entry is “inactive”.
In the case of `CC1(C)Cc2c(c(N3CCOCC3)nc3sc(C(=O)NCc4ccco4)c(N)c23)CO1`, the “activity change, negative = inhibition” value was “inactive”.
Still for that read-out and setting: as for `C[C@H](CO)N1C[C@H](C)[C@@H](CN(C)CC2CCCCC2)OCCCC[C@H](C)Oc2ccc(NS(=O)(=O)c3cccs3)cc2C1=O`, the entry is “inactive”.
Same read-out and setting: as for `Cn1cccc1CNCCCSc1ncccn1`, the entry is “inactive”; as for `Nc1c2c(nc3ccccc13)CCN(Cc1ccccc1)C2`, “inactive”.
Still for that read-out and setting: as for `O=C(N/N=C/C=C/c1ccco1)c1cncc(Br)c1`, the entry is “inactive”; as for `N#Cc1c(-c2ccco2)cc(-c2ccccn2)nc1N`, “inactive”; as for `Cc1ccc2c(c1)C(N1CCCC1=O)CC(c1ccco1)N2` (configuration not stated), “inactive”.
As for `CCCOc1ccc(CCC(=O)O)cc1`, the “activity change, negative = inhibition” value was “inactive”.
With `C[C@H](CO)N1C[C@H](C)[C@@H](CN(C)CC2CCCCC2)OCCCC[C@H](C)Oc2ccc(NS(=O)(=O)c3ccc(Cl)cc3)cc2C1=O`, the “activity change, negative = inhibition” value is “inactive”.
Same read-out and setting: as for `Cc1ccc(Nc2nc(C(=O)Nc3ccc(Br)cc3)nc3ccccc23)cc1`, the entry is “inactive”; as for `C[C@H](CO)N1C[C@H](C)[C@@H](CN(C)C(=O)C2CCCCC2)OCCCC[C@H](C)Oc2ccc(NS(=O)(=O)c3ccccc3)cc2C1=O`, “inactive”.
Same read-out and setting: the same measure for `CN1C(=O)C(c2ccccc2[N+](=O)[O-])C(=O)c2ccccc21` (configuration not stated): “inactive”; for `CCCc1oc(C(=O)O)cc1CN`: “inactive”; for `CCSCCNC(=O)c1cncc(Br)c1`: “inactive”.
Same read-out and setting: the same measure for `CCOc1ccc(-n2c3nc4ccccc4nc3c3c(=O)n(Cc4ccco4)cnc32)cc1`: “inactive”.
With `CN(C)C(CN=C1NS(=O)(=O)c2ccccc21)c1ccco1` (configuration not stated), the “activity change, negative = inhibition” value is “inactive”.
On the same count and under the same terms, as for `CN(Cc1ccco1)S(=O)(=O)c1nnc(NC(=O)c2ccccc2)s1`, the entry is “inactive”.
Same read-out and setting: the same measure for `O=C(NCCc1ccco1)c1ccc(OCc2cn3ccccc3n2)cc1`: “inactive”; for `O=C(COC(=O)c1cc(-c2ccco2)nc2ccccc12)NCc1ccc2c(c1)OCO2`: “inactive”.
`CC(=O)Nc1ccc(Nc2nc(-c3nnc(-c4cccc(C)c4)o3)nc3ccccc23)cc1`: the “activity change, negative = inhibition” value was “inactive”.
On the same count and under the same terms, as for `COCCCNC(=O)C1CCN(c2ccc(N3CCOCC3)nn2)CC1`, the entry is “inactive”; as for `CC1CCN(c2nc(-c3ccco3)c3c(c2C#N)CC(C)(C)OC3)CC1`, “inactive”.
Same read-out and setting: the same measure for `Nc1cc2c(cc1-n1cccc1)OCCO2`: “inactive”.
Same read-out and setting: the same measure for `O=C(O)COc1ccc(-n2cccc2)cc1`: “inactive”; for `CC(=O)Nc1ccc2nc3c(=O)n(C)c(=O)n(C)c3nc2c1`: “inactive”.
For `COc1ccc(-c2nc(SCC(=O)N3CCN(c4ccccc4OC)CC3)n[nH]2)cc1`, the “activity change, negative = inhibition” value is “inactive”.
Same read-out and setting: the same measure for `O=C(COc1cccnc1[N+](=O)[O-])c1ccc(Cl)s1`: “inactive”; for `O=S(=O)(c1ccc(F)cc1)N1CN(Cc2ccco2)c2nc3ccccc3nc21`: “inactive”; for `O=C(O)CCc1ccc(-c2cccs2)n1NC(=O)c1ccco1`: “inactive”.
Same read-out and setting: the same measure for `O=c1/c(=C/c2ccco2)sc2nc3ccccc3n12`: “inactive”; for `COc1ccc(S(=O)(=O)Nc2ccc3c(c2)C(=O)N([C@H](C)CO)C[C@H](C)[C@@H](CN(C)C(=O)C2CCCCC2)OCCCC[C@H](C)O3)cc1`: “inactive”.
The same measure, in the same setting: the same measure for `COC[C@]1(O)CCN(C(=O)CCN(C)S(C)(=O)=O)CC1(C)C`: “inactive”; for `c1coc(-c2cn3ccc4ccccc4c3n2)c1`: “inactive”.

As usually defined, the AC50 is the concentration at which the activity in the assay is half-maximal.
